Laboratory results taken from patent publication US10143666B2, “Small molecule inhibitors targeting CAG-repeat RNA toxicity in polyglutamine diseases” (The Chinese University of Hong Kong, priority 2015, dated 2018).
Where “and” joins values, the source holds several entries; their conditions need not be identical. Equal entries are not always repeated.

Assay: Body weight in R6/2 mice
Settings: for Body weight (individual mouse): in g (unit assumed); for Body weight, differences between treatment groups: any time point, p>0.05
Description: The body weights were measured daily.

## CN(C)CCCNC(=N)c1ccc(C(=N)NCCCN(C)C)cc1.Cl.Cl.Cl.Cl [DB213]
i.n. daily 100 mg/kg, Day 2, listed as Compound-5, 100 mg/kg
  Body weight (individual mouse): 20.3 and 19.2 and 23.2 and 20.7 and 23.6
i.n. daily 100 mg/kg, Day 3, listed as Compound-5, 100 mg/kg
  Body weight (individual mouse): 19.3 and 20.7 and 19.8 and 23.9 and 21.1
i.n. daily 100 mg/kg, Day 4
  Body weight (group Mean): 21.6 g
i.n. daily 100 mg/kg, Day 4, listed as Compound-5, 100 mg/kg
  Body weight (individual mouse): 19.4 and 19.8 and 24 and 21.1 and 24.4
i.n. daily 100 mg/kg, Day 5, listed as Compound-5, 100 mg/kg
  Body weight (individual mouse): 20.6 and 19.4 and 23.6 and 20.7 and 23.9
i.n. daily 100 mg/kg, Day 6
  Body weight (group Mean): 21.5 g
i.n. daily 100 mg/kg, Day 6, listed as Compound-5, 100 mg/kg
  Body weight (individual mouse): 19.8 and 23.6 and 21.1 and 24
i.n. daily 100 mg/kg, Day 7
  Body weight (group Mean): 21.1 g
i.n. daily 100 mg/kg, Day 7, listed as Compound-5, 100 mg/kg
  Body weight (individual mouse): 19 and 19.4 and 24.7
i.n. daily 200 mg/kg, Day 1
  Body weight (group Mean): 20.9 g
i.n. daily 200 mg/kg, Day 1, listed as Compound-5, 200 mg/kg
  Body weight (individual mouse): 19.9 and 23.6
i.n. daily 200 mg/kg, Day 2, listed as Compound-5, 200 mg/kg
  Body weight (individual mouse): 23.5
i.n. daily 200 mg/kg, Day 3
  Body weight (group Mean): 20.4 g
i.n. daily 200 mg/kg, Day 3, listed as Compound-5, 200 mg/kg
  Body weight (individual mouse): 18.3 and 19.2 and 21.5
i.n. daily 200 mg/kg, Day 4, listed as Compound-5, 200 mg/kg
  Body weight (individual mouse): 17.9 and 19
i.n. daily 200 mg/kg, Day 5
  Body weight (group Mean): 20.7 g
i.n. daily 200 mg/kg, Day 5, listed as Compound-5, 200 mg/kg
  Body weight (individual mouse): 18.2 and 18.3 and 22.7
i.n. daily 200 mg/kg, Day 6, listed as Compound-5, 200 mg/kg
  Body weight (individual mouse): 18.4 and 23.1
i.n. daily 200 mg/kg, Day 7
  Body weight (group Mean): 20.4 g
i.n. daily 300 mg/kg, Day 1
  Body weight (group Mean): 21.6 g
i.n. daily 300 mg/kg, Day 2
  Body weight (group Mean): 20.2 g
i.n. daily 300 mg/kg, Day 3
  Body weight (group Mean): 19.5 g
i.n. daily 300 mg/kg, Day 6
  Body weight (group Mean): 20.1 g
i.n. daily 300 mg/kg, Day 7
  Body weight (group Mean): 20.4 g
i.n. daily 50-300 mg/kg
  Body weight, differences between treatment groups: no differences in body weight
i.v. 50 mg/kg (treatment discontinued), Day 2, n 1
  Body weight (group Mean): 16.1 g
i.v. 50 mg/kg (treatment discontinued), Day 3, n 1
  Body weight (group Mean): 16.3 g
i.v. 50 mg/kg (treatment discontinued), Day 4, n 1
  Body weight (group Mean): 16.2 g
i.v. 50 mg/kg (treatment discontinued), Day 5, n 1
  Body weight (group Mean): 16.8 g
i.v. 50 mg/kg (treatment discontinued), Day 6 (not measured, replaced by mean of days 5 and 7), n 1
  Body weight (group Mean): 16.8 g
i.v. 50 mg/kg (treatment discontinued), Day 7, n 1
  Body weight (group Mean): 16.8 g
i.v. twice-a-week 12.5 mg/kg, Day 3
  Body weight (group Mean): 22 g
i.v. twice-a-week 12.5 mg/kg, Day 4
  Body weight (group Mean): 22 g
i.v. twice-a-week 12.5 mg/kg, Day 6 (not measured, replaced by mean of days 5 and 7)
  Body weight (group Mean): 22.4 g
i.v. twice-a-week 12.5 mg/kg, Day 7
  Body weight (group Mean): 22.6 g
i.v. twice-a-week 25 mg/kg, Day 2
  Body weight (group Mean): 21 g
i.v. twice-a-week 25 mg/kg, Day 3
  Body weight (group Mean): 21.6 g
i.v. twice-a-week 25 mg/kg, Day 4
  Body weight (group Mean): 21.6 g
i.v. twice-a-week 25 mg/kg, Day 7
  Body weight (group Mean): 22 g
i.v. twice-a-week 12.5 and 25 mg/kg
  Body weight, differences between treatment groups: no differences in body weight
